“Also recorded” adds a separate entry of the source.
Tests used:
[1] = test system: dextran sulfate sodium-induced colitis; set-up: method as in PMID 40602551; conditions: mice, oral 100 mg/kg; cited from earlier work
[2] = Distribution coefficient (log D6.8), isotonic phosphate buffer (pH 6.8)/n-octanol; type: physicochemical
Method: Distribution coefficients (log D6.8) of PBN, PBN-GA, and PBN-AA were measured using an isotonic phosphate buffer (pH 6.8)/n-octanol system, as described previously.

Px-1 = test system: Px-1; set-up: method as in PMID 18596212; conditions: cited from earlier work
[3] = Incubation in small intestinal contents of rats; type: in vitro ADME, rat; conditions: 10 h
Method: Male Sprague-Dawley rats (250–260 g) were euthanized with CO2 prior to making a midline abdominal incision. The small intestinal contents were collected and suspended in isotonic phosphate buffer (pH 6.8) to prepare a 20% (w/v) suspension. PBN-GA (2 mM) was dissolved in 3 mL of isotonic phosphate buffer (pH 6.8), were mixed with 3 mL of the small intestinal suspension and incubated at 37 °C. A solution of PBN-AA was created with the same method. At designated time points, 0.5 mL of the reaction mixture was collected and centrifuged at 10,000× g at 4 °C for 10 min, and 0.1 mL of the supernatant was mixed with 0.9 mL of methanol. After vortexing and centrifugation under the same conditions, the final supernatant was filtered through a 0.45 μm membrane, and 20 μL of the filtrate was analyzed for PBN concentration by HPLC.

Caco-2 cell monolayer = assay: Cell permeability assay across Caco-2 cell monolayer; type: in vitro ADME; conditions: 500 μM apical, up to 24 h, apical to basolateral
Method: The cell permeabilities of PBN, PBN-GA, and PBN-AA were evaluated using a Caco-2 cell monolayer model. Caco-2 cells were seeded at a density of 4 × 10^5 cells per insert in Transwell 6-well plates with a pore size of 0.4 μm (SPL Life Sciences, Pocheon, Gyeonggi-do, Republic of Korea). The cells were cultured in Dulbecco’s modified eagle medium (DMEM) supplemented with 10% Fetal bovine serum (FBS) and 1% penicillin/streptomycin until the transepithelial electrical resistance (TEER) measured using an EMD Millipore system (Billerica, MA, USA) reached 2000 Ω·cm^2, indicating an intact monolayer.
For the transport study, the apical (donor) compartment was filled with 2 mL of DMEM without phenol red containing the test compounds (500 μM), and 3 mL of DMEM without phenol red was placed in the basolateral (acceptor) compartment. Samples were collected from the basolateral side at designated time intervals up to 24 h to determine the concentration of the permeated compounds using HPLC. Each experiment was performed in triplicate, and monolayer integrity was confirmed by maintaining TEER values above 2000 Ω·cm^2 before and after the assay.

[4] = Chemical stability in HCl-NaCl buffer (pH 1.2) and isotonic phosphate buffer (pH 6.8); type: physicochemical
Method: The chemical stabilities of PBN-GA and PBN-AA were tested in HCl-NaCl buffer (pH 1.2) and isotonic phosphate buffer (pH 6.8). Changes in the concentrations of PBN-GA and PBN-AA were monitored by HPLC.

[5] = PBN concentration in the cecum after oral gavage; type: in vivo; conditions: rat
Method: For cecal distribution studies, rats were orally administered PBN (30.0 mg/kg) or PBN-GA (43.6 mg/kg, equivalent to 30.0 mg/kg of PBN) in 1.0 mL PBS. At 2, 4, and 8 h post-dosing, the cecal contents were harvested and suspended in isotonic phosphate buffer (pH 6.8) to prepare 10% (w/v) homogenates. Quantitative analysis of PBN in the cecal suspensions was performed using HPLC, following the procedure described in Section 2.7.

DNBS-induced rat colitis = assay: Anticolitis effects in DNBS-induced rat colitis; type: in vivo
Method: Experimental colitis was induced in rats as previously described. Briefly, male Sprague–Dawley rats underwent to a 24 h fasting period with free access to water. Anesthesia was induced using 3% isoflurane and maintained at 2.5% in 1 L/min oxygen using a Small Animal O2 Single Flow Anesthesia System (LMS, Pyeongtaek, Republic of Korea). Once the animals no longer reacted to external tactile stimulation, a rubber cannula (2 mm outer diameter) was carefully inserted rectally, positioning the tip approximately 8 cm from the anus to target the splenic flexure. A solution of DNBS (48.0 mg) in 0.4 mL of 50% aqueous ethanol was then instilled into the colon via cannula to induce colitis.
Three days after the induction of colonic inflammation, the respective drugs were orally administered to the rats once daily for 6 consecutive days. The experimental scheme and treatment group assignments are shown in Supplementary Material S1. Colonic damage scores (CDS) were determined based on previously established scoring criteria. The scoring system is shown in Supplementary Material S2. Three independent observers blinded to the treatment groups conducted the CDS assessments. Myeloperoxidase (MPO) activity in the distal colon (4 cm) was determined as previously. One unit of MPO activity was defined as 1.0 μmol min^−1 of peroxide degradation at 25 °C.
Western blot analysis was performed on lysates derived from distal colon tissues following a previously established protocol. The detailed procedure is shown in Supplementary Material S3. Western blot images were quantified using Image Lab software (version 5.2 build 14; Bio-Rad, Hercules, CA, USA). Results are presented as the mean of the quantified values for each Western blot in the figures (n = 5).
The levels of inflammatory cytokine-induced neutrophil chemoattractant-3 (CINC-3) in the inflamed distal colon were determined using a CINC-3 enzyme-linked immunosorbent assay (ELISA) kit (R&D Systems, Minneapolis, MN, USA) as previously described.

[6] = oral once daily for 6 days, PBN-GA 21.8 and 43.6 mg/kg

Row | Structure (SMILES) | logD [2] | change in concentration of the conjugate (stability) [3] | transport via the Caco-2 cell monolayer compared with PBN (Caco-2 cell monolayer) | change in concentration of the conjugate (stability) ([4]; buffer pH 1.2, 10 h) | change in concentration of the conjugate (stability) ([4]; buffer pH 6.8, 10 h) | further results
1 | N[C@@H](CCC(=O)O)C(=O)O [GA, glutamic acid] |  |  |  |  |  | effect on dextran sulfate sodium-induced colitis [1]: attenuates
2 | CCCN(CCC)S(=O)(=O)c1ccc(C(=O)O)cc1 [PBN, Probenecid] | 0.3 |  |  |  |  | concentration required for significant inhibition of Px-1 (Px-1): 1 mM
3 | CCCN(CCC)S(=O)(=O)c1ccc(C(=O)N[C@@H](CC(=O)O)C(=O)O)cc1 [PBN-AA, aspartic acid-conjugated PBN] | -1.04 | no significant change | lower transport | no significant change | no significant change | 
4 | CCCN(CCC)S(=O)(=O)c1ccc(C(=O)N[C@@H](CCC(=O)O)C(=O)O)cc1 [PBN-GA, glutamic acid-conjugated PBN] | -1.22 | no significant change | lower transport | no significant change | no significant change | amount of PBN detected in the cecum compared with oral PBN ([5]; oral 43.6 mg/kg (equivalent to 30.0 mg/kg PBN), 2, 4 and 8 h): much greater amount of PBN; amount of PBN in the large intestine relative to oral PBN ([5]; oral, all time points): ten-fold; CINC-3 level in inflamed colon (ELISA) (DNBS-induced rat colitis; [6]): dose-dependently diminished; COX-2 level in inflamed colon (Western blot) (DNBS-induced rat colitis; [6]): dose-dependently diminished; iNOS level in inflamed colon (Western blot) (DNBS-induced rat colitis; [6]): dose-dependently diminished; mucosal recovery (H&E staining of inflamed colon) (DNBS-induced rat colitis; [6]): more effective than PBN and SSZ; myeloperoxidase (MPO) activity in inflamed distal colon (DNBS-induced rat colitis; [6]): dose-dependently diminished; colonic tissue damage (colonic damage score, CDS) (DNBS-induced rat colitis; oral once daily for 6 days, PBN-GA 21.8 and 43.6 mg/kg, PBN 30.0 mg/kg, SSZ 50.0 mg/kg): greater with PBN-GA than with PBN; also recorded: more effective than SSZ; suppression of the inflammatory response compared with PBN and SSZ (DNBS-induced rat colitis; regardless of the dose of PBN-GA): more effective in suppressing the inflammatory response than PBN and SSZ

Source: paper PMC12655446, “Colon-Specific Delivery of Probenecid Enhances Therapeutic Activity of the Uricosuric Agent Against Rat Colitis” (Pharmaceutics, 2025)
